US20060057092A1, “Cosmetic use of a composition including an ascorbic acid compound and polyamide particles” (L'OREAL, priority 2004, published 2006)

Test system: immortalized human sebocytes resulting from the SZ95 line
Assay: Lipogenesis in cultured immortalized human sebocytes (Nile Red fluorescence, neutral lipids)
Format: cell-based
Settings: for Inhibition of lipogenesis: Effectiveness (% with respect to the control): 0.0004% in culture medium, 2 days of treatment, neutral lipids
Description: Various ascorbic acid compounds were tested on a model of cultured immortalized human sebocytes resulting from the SZ95 line described in Zouboulis, C. C., Seltmann, H., Neitzel, H. and Orfanos, C. E., Establishment and Characterization of an Immortalized Human Sebaceous Gland Cell Line, J. Invest. Dermatol., 113, 1011-1020 (1999).
These compounds were composed of L-ascorbic acid 2-O-α-D-glucopyranoside (hereinafter ascorbyl glucoside), of ascorbic acid, of ascorbyl palmitate and of magnesium ascorbyl phosphate.
The test consisted in measuring the amount of lipids produced by the sebocytes of the line (at confluence) in the presence or absence of active agents diluted in the culture medium. After 2 days of treatment, the adherent cells are treated with Nile Red (1 μg/ml). The content of lipids is subsequently quantified by measuring the fluorescence of the dye (two excitation/emission pairs: 485-540 nm for the neutral lipids and 540-620 nm for the nonneutral lipids). The results are given for the neutral lipids (components of the sebum).
The experiment is carried out in octuplicate (tested and control products) in a 96-well plate.

SMILES | Inhibition of lipogenesis: Effectiveness (% with respect to the control) | further results
O=C1O[C@H]([C@@H](O)CO)C(O)=C1O [Ascorbic acid, ascorbic acid] | ns | 
O=C1O[C@H]([C@@H](O)CO)C(O)=C1O[C@H]1O[C@H](CO)[C@@H](O)[C@H](O)[C@H]1O [Ascorbyl glucoside, L-ascorbic acid 2-O-α-D-glucopyranoside] |  | effective concentration for reducing lipogenesis relative to ascorbic acid (comparable level of inhibition) (SZ95 sebocytes): ten times lower
CCCCCCCCCCCCCCCC(=O)OC[C@H](O)[C@H]1OC(=O)C(O)=C1O [Ascorbyl palmitate, ascorbyl palmitate] |  | effect on lipogenesis (in words) (SZ95 sebocytes): stimulating (and not inhibiting) effect
O=C1O[C@H]([C@@H](O)CO)C([O-])=C1OP(=O)([O-])[O-].O=C1O[C@H]([C@@H](O)CO)C([O-])=C1OP(=O)([O-])[O-].[Mg+2].[Mg+2].[Mg+2] [Magnesium ascorbyl phosphate, magnesium ascorbyl phosphate] | ns | 
